{
  "source": "paper PMC7931226",
  "about": "(Pharmacology Research & Perspectives, 2021)",
  "key": {"[1]": {"test": "Valspodar plasma and brain exposure, constant infusion or IV bolus in rats", "type": "in vivo, Sprague Dawley rats", "conditions": "rat; for concentration at 4 h: Sprague Dawley, plasma, intravenous"}, "rat P-gp at the BBB": {"tested_on": "rat P-gp at the BBB", "test": "In vivo efflux ratio", "design": "species or system Sprague Dawley rats", "conditions": "constant infusion, inhibition of P-gp at the BBB"}, "Tolerability in rats": {"test": "Tolerability in rats", "type": "in vivo"}, "P-gp": {"tested_on": "P-gp", "conditions": "ref 26 (Smith et al, 1998); cited from earlier work"}, "[2]": {"test": "Rat plasma protein binding", "type": "in vitro ADME"}, "[3]": {"tested_on": "P-gp and Bcrp (rat, blood-brain barrier)", "test": "In vivo efflux ratio", "design": "species or system Sprague Dawley rats", "conditions": "Sprague Dawley, intravenous, with elacridar 8.9 mg/hr/kg, 4.5-hour constant infusion"}, "BCRP": {"tested_on": "BCRP", "conditions": "BCRP knockout; cited from earlier work"}, "[4]": {"biological_target": "T1, Bcrp in the gut and biliary compartments (Rattus norvegicus, UniProt Q80W57)", "T1 sequence (Q80W57 1-657)": "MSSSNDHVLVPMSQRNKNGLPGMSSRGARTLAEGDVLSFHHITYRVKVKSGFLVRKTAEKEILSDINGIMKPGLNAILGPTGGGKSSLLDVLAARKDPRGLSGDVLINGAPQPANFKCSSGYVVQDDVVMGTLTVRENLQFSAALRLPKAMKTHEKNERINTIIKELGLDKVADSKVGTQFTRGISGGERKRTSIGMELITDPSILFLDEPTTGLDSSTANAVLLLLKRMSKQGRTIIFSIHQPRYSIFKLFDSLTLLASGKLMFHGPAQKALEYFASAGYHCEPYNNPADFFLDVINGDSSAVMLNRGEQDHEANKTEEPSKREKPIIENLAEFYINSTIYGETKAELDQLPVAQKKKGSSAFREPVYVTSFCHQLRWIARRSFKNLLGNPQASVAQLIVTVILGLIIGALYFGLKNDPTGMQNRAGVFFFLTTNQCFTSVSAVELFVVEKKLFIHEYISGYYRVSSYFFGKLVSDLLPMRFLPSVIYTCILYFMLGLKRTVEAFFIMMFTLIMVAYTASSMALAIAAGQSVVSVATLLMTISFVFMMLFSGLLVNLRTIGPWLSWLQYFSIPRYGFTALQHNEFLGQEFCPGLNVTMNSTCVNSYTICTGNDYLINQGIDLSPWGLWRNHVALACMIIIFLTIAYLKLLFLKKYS", "test": "Oral PK of BCRP substrates with constant infusion of elacridar", "type": "in vivo", "conditions": "oral substrate with constant infusion of elacridar"}, "Caco-2 cells": {"tested_on": "Caco-2 cells", "conditions": "range of substrates, well documented (ref not given); cited from earlier work"}, "MDCK-BCRP cells": {"tested_on": "MDCK-BCRP cells", "conditions": "range of substrates, well documented (ref not given); cited from earlier work"}, "[5]": {"test": "Elacridar plasma and brain exposure, constant infusion in rats", "type": "in vivo, Sprague Dawley rats", "conditions": "rat; for concentration at 4 h: Sprague Dawley, intravenous"}, "[6]": {"conditions": "constant infusion, based upon 3x the half-life"}},
  "note": "pIC50: −log10 of the molar value.",
  "data": [
    {"compound": "C/C=C/C[C@@H](C)C(=O)[C@H]1C(=O)N[C@@H](C(C)C)C(=O)N(C)CC(=O)N(C)[C@@H](CC(C)C)C(=O)N[C@@H](C(C)C)C(=O)N(C)[C@@H](CC(C)C)C(=O)N[C@@H](C)C(=O)N[C@H](C)C(=O)N(C)[C@@H](CC(C)C)C(=O)N(C)[C@@H](CC(C)C)C(=O)N(C)[C@@H](C(C)C)C(=O)N1C", "note": "[valspodar]", "values": [
      {"measurement": "concentration at 4 h", "setting": "[1]; 8 mg/hr/kg, free plasma exposure, maximum soluble dose 8 mg/hr/kg constant infusion", "value": 2.14, "unit": "µM"},
      {"measurement": "concentration at 4 h", "setting": "[1]; free plasma exposure (mean), range over doses, 0.09 to 8 mg/hr/kg constant infusion over 4.5 hours, rat plasma binding = 92%", "value": "32 to 2590", "unit": "ng/mL"},
      {"measurement": "time to steady state in plasma", "setting": "[1]; [6]", "value": "≤ 2.5", "unit": "h"},
      {"measurement": "minimal (lowest) efficacious dose", "setting": "rat P-gp at the BBB", "value": 0.9, "unit": "mg/h/kg"},
      {"measurement": "side effects", "setting": "Tolerability in rats; IV bolus doses at 10 mg/kg or higher and repeat doses of 5 mg/kg or higher with less than 2 h between doses", "value": "lethargy and increased urination"},
      {"measurement": "side effects", "setting": "Tolerability in rats; constant infusion 0.9 mg/hr/kg and 2.7 mg/hr/kg up to 8 hours", "value": "No side effects were observed"},
      {"measurement": "side effects", "setting": "Tolerability in rats; constant infusion, highest dose 8 mg/hr/kg", "value": "some instances were observed"},
      {"measurement": "decrease in in vitro efficacy from serum binding", "setting": "P-gp", "value": 23, "unit": "fold"},
      {"measurement": "rat plasma binding", "setting": "[2]; mean", "value": 92, "unit": "%"}
    ]},
    {"compound": "COc1ccc(Cl)cc1C(=O)NCCc1ccc(S(=O)(=O)NC(=O)NC2CCCCC2)cc1", "note": "[glyburide]", "values": [
      {"measurement": "efflux ratio at 4 h", "setting": "[3]", "value": 5.4},
      {"measurement": "increase in placental tissue concentration", "setting": "BCRP", "value": 2.5, "unit": "fold"}
    ]},
    {"compound": "O=C(O)c1cc(/N=N/c2ccc(S(=O)(=O)Nc3ccccn3)cc2)ccc1O", "note": "[sulfasalazine]", "values": [
      {"measurement": "increase in liver concentrations", "setting": "[4]; 8 hours post-dose", "value": 4, "unit": "fold"},
      {"measurement": "half-life", "setting": "[4]; up to 8 hours post-dose", "value": "significant increase"}
    ]},
    {"compound": "CC[C@@]1(O)C(=O)OCc2c1cc1n(c2=O)Cc2cc3c(CN(C)C)c(O)ccc3nc2-1", "note": "[topotecan]", "values": [
      {"measurement": "clearance (calculated t1/2 and liver concentrations)", "setting": "[4]", "value": "not impacted"}
    ]},
    {"compound": "COc1cc2c(cc1OC)CN(CCc1ccc(NC(=O)c3cccc4c(=O)c5cccc(OC)c5[nH]c34)cc1)CC2", "note": "[elacridar, 9,10‐dihydro‐5‐methoxy‐9‐oxo‐N‐[4‐[2‐(1,2,3,4‐tetrahydro‐6,7‐dimethoxy‐2‐isoquinolinyl)ethyl]phenyl]‐4‐acridine‐carboxamide]", "values": [
      {"measurement": "pIC50", "setting": "Caco-2 cells", "value": 6.22},
      {"measurement": "side effects", "setting": "Tolerability in rats; any study conditions up to 8-hour duration", "value": "no negative side effects were observed"},
      {"measurement": "pIC50", "setting": "MDCK-BCRP cells", "value": 6.52},
      {"measurement": "free in rat plasma (free fraction)", "setting": "[2]; well known (ref 27), confirmed in-house", "value": 1.5, "unit": "%"},
      {"measurement": "concentration at 4 h", "setting": "[5]; brain, 8.9 mg/hr/kg, total drug in brain, elacridar 8.9 mg/hr/kg constant infusion", "value": "> 45000", "unit": "ng/g"},
      {"measurement": "concentration at 4 h", "setting": "[5]; plasma, 8.9 mg/hr/kg, Elacridar (total plasma), elacridar 8.9 mg/hr/kg, 4.5-hour constant infusion, mean", "value": "> 2000", "unit": "ng/mL"},
      {"measurement": "concentration at 4 h", "setting": "[5]; plasma, 8.9 mg/hr/kg, steady state free plasma, elacridar 8.9 mg/hr/kg constant infusion (maximum)", "value": "0.035 to 0.07", "unit": "µM"},
      {"measurement": "concentration at 4 h", "setting": "[5]; plasma, free plasma exposure, range over doses, 0.009 to 8.9 mg/hr/kg constant infusion, 1.5% rat plasma free fraction", "value": "0.025 to 49", "unit": "ng/mL"},
      {"measurement": "concentration at 4 h", "setting": "[5]; plasma, total plasma exposure (mean), range over doses, 0.009 to 8.9 mg/hr/kg constant infusion over 4.5 hours", "value": "1.6 to 3270", "unit": "ng/mL"},
      {"measurement": "time to steady state in plasma", "setting": "[5]; [6]", "value": "≤ 2.5", "unit": "h"}
    ]}
  ]
}
